Patent publication US6875764B1, “Urea and thiourea compounds useful for treatment of coccidiosis” (New Pharma Research Sweden AB, priority 1999, dated 2005)

Experiments:
[1] = test system: mixture of 8 mature sporulated strains (E. mitis, E. hagani, E. praecox, E. acervulina, E. maxima, E. necatrix, E. tenella and E. brunetti); assay: Prophylactic anticoccidial evaluation in chickens of Arbor Aker breed; assay type: in vivo, chicken; details: 100 ppm in feed from day 3 after hatch, infected orally day 7
Description: (§1) The antiparasitic activity of the present compounds as prophylactic agents was evaluated in vivo on 100 one day old (1 day after hatch) chickens of Habbared X breed. The chickens were divided into five groups of 20 birds each, and each group was located in a separate pen (1 m×1 m). The chickens were then fed with unmedicated food up to day 7 after hatch. Fresh water was supplied ad libitum.
(§2) On day 8 after hatch, the five groups were given feed containing the following compounds (1 ppm=1 mg drug/kg feed): • Group #1: B49 (100 ppm); • Group #2: B42 (150 ppm); • Group #3: B46 (100 ppm); • Group #4: Coxistac (60 ppm), a known anticoccidial agent (see U.S. Pat. No. 3,857,948); • Group #5: no drug content (control group).
(§3) The chickens were fed as above on day 8 and 9 after hatch. On day 10 after hatch, each chicken was infected orally by 6 000-7 000 oocysts containing a mixture of 5 mature sporulated strains, namely E. acervulina, E. maxima, E. necatrix, E. tenella and E. brunetti. The groups #1-4 received drug as above from day 10 to 21 after hatch.
(§4) From day 14 to 21 after hatch, fresh fecal droplets were collected and examined daily. The average number of oocysts/g faeces was then calculated in accordance with the co-called Mc-Master technique (Soulsby, 1984).
Moreover, the prophylactic anticoccidial effect of B42, B49 and B51 was also evaluated in chickens of Arbor Aker breed. These trials were conducted by using basically the same test protocol as that used for the chickens of Habbared X breed, albeit with the following modifications: • i) On day 3 after hatch, the tested groups of chickens receieved feed containing 100 ppm of B42, B49, B51 or Coxistac (60 ppm); • ii) On day 7 after hatch, the chickens were infected orally by oocysts containing a mixture of 8 mature sporulated strains, namely E. mitis, E. hagani, E. praecox, E. acervulina, E. maxima, E. necatrix, E. tenella and E. brunetti.

[2] = test system: Eimeria spp. (E. acervulina, E. maxima, E. necatrix, E. tenella and E. brunetti); assay: Prophylactic anticoccidial evaluation in vivo in chickens of Habbared X breed, drug in feed; design: species or system chicken; details: for duration of the anticoccidial infection as compared to Coxistac: B49 100 ppm, B42 150 ppm vs Coxistac 60 ppm; for Average number of Eimeria spp. oocysts/g faeces, day after hatch 14: day 14 after hatch; for Average number of Eimeria spp. oocysts/g faeces, day after hatch 14 / Average number of Eimeria spp. oocysts/g faeces, day after hatch 15 / Average number of Eimeria spp. oocysts/g faeces, day after hatch 16 / Average number of Eimeria spp. oocysts/g faeces, day after hatch 17 / Average number of Eimeria spp. oocysts/g faeces, day after hatch 18 / Average number of Eimeria spp. oocysts/g faeces, day after hatch 19 / Average number of Eimeria spp. oocysts/g faeces, day after hatch 21: infected orally day 10; for Average number of Eimeria spp. oocysts/g faeces, day after hatch 14 / Average number of Eimeria spp. oocysts/g faeces, day after hatch 15 / Average number of Eimeria spp. oocysts/g faeces, day after hatch 16 / Average number of Eimeria spp. oocysts/g faeces, day after hatch 17 / Average number of Eimeria spp. oocysts/g faeces, day after hatch 18 / Average number of Eimeria spp. oocysts/g faeces, day after hatch 19 / Average number of Eimeria spp. oocysts/g faeces, day after hatch 21 / Mean body weight / Mean amount of feed consumed / Average number of Eimeria spp. oocysts/g faeces, Total: in feed B49 100 ppm, B42 150 ppm, B46 100 ppm, Coxistac 60 ppm; for Average number of Eimeria spp. oocysts/g faeces, day after hatch 15: day 15 after hatch; for Average number of Eimeria spp. oocysts/g faeces, day after hatch 16: day 16 after hatch; for Average number of Eimeria spp. oocysts/g faeces, day after hatch 17: day 17 after hatch; for Average number of Eimeria spp. oocysts/g faeces, day after hatch 18: day 18 after hatch; for Average number of Eimeria spp. oocysts/g faeces, day after hatch 19: day 19 after hatch; for Average number of Eimeria spp. oocysts/g faeces, day after hatch 21: day 21 after hatch; for Mean body weight: final weight; for Mean amount of feed consumed: mean total amount per bird; for Average number of Eimeria spp. oocysts/g faeces, Total: total of days 14 to 21 after hatch
Description: as §1, §2, §3, §4

| Compound | prophylactic anticoccidial effect, results in words [1] | duration of the anticoccidial infection as compared to Coxistac ([2]; Habbared X chickens) | Average number of Eimeria spp. oocysts/g faeces, day after hatch 14 [2] [oocysts/g faeces] | Average number of Eimeria spp. oocysts/g faeces, day after hatch 15 [2] [oocysts/g faeces] | Average number of Eimeria spp. oocysts/g faeces, day after hatch 16 [2] [oocysts/g faeces] | Average number of Eimeria spp. oocysts/g faeces, day after hatch 17 [2] [oocysts/g faeces] | Average number of Eimeria spp. oocysts/g faeces, day after hatch 18 [2] [oocysts/g faeces] | Average number of Eimeria spp. oocysts/g faeces, day after hatch 19 [2] [oocysts/g faeces] | Average number of Eimeria spp. oocysts/g faeces, day after hatch 21 [2] [oocysts/g faeces] | Mean body weight [2] [g] | Mean amount of feed consumed [2] [g] | Average number of Eimeria spp. oocysts/g faeces, Total [2] [oocysts/g faeces] | feed consumption lower in comparison with the Coxistac treated group ([2]; Habbared X chickens, B46 100 ppm vs Coxistac 60 ppm) [%] | body weight gain ([2]; Habbared X chickens, feed containing B46 100 ppm) |
| --- | --- | --- | --- | --- | --- | --- | --- | --- | --- | --- | --- | --- | --- | --- |
| N#Cc1ccc(NC(=S)Nc2ccc([N+](=O)[O-])cc2)cc1 [Compound B51, N-(4-cyanophenyl)-N′-(4-nitrophenyl) thiourea] | comparable with those of B42 |  |  |  |  |  |  |  |  |  |  |  |  |  |
| O=[N+]([O-])c1ccc(S(=O)(=O)N(C(=S)N(c2nc3ccc([N+](=O)[O-])cc3s2)S(=O)(=O)c2ccc([N+](=O)[O-])cc2)c2ccc(F)cc2)cc1 [Compound B42, N-(4-fluorophenyl)-4-nitro-N-({(6-nitro-1,3-benzothiazol-2-yl)[(4-nitrophenyl)sulfonyl]amino}carbothioyl)benzene-sulfonamide] | essentially the same as those reported for the trials with the chickens of Habbared X breed | shorter | 0.0 | 0.0 | 3000 | 7000 | 0.0 | 0.0 | 0.0 | 61.0 | 93 | 10000 |  |  |
| CC[C@@H](C(=O)[C@@H](C)[C@@H](O)[C@H](C)[C@@H]1O[C@@H]([C@@H](CC)C(=O)O)CC[C@@H]1C)[C@H]1O[C@]2(C=C[C@@H](O)[C@]3(CC[C@@](C)([C@H]4CC[C@](O)(CC)[C@H](C)O4)O3)O2)[C@H](C)C[C@@H]1C [Coxistac, reference compound] |  |  | 0.0 | 3000 | 4000 | 7000 | 2000 | 2000 | 0.0 | 62.0 | 120 | 18000 |  |  |
| O=C(O)c1cc(I)c(NC(=S)Nc2ccccc2)c(I)c1 [Compound B49, 4-[(anilinocarbothioyl)amino]-3,5-diiodobenzoic acid] | essentially the same as those reported for the trials with the chickens of Habbared X breed | shorter | 0.0 | 3000 | 10000 | 20000 | 0.0 | 0.0 | 0.0 | 66.0 | 95 | 33000 |  |  |
| 4-nitro-N-{[4-({4-nitro[(4-nitrophenyl)sulfonyl]anilino}-carbothioyl)-1-piperazinyl]carbothioyl}-N-(4-nitrophenyl)benzenesulfonamide [Compound B46] |  |  | 0.0 | 3000 | 14000 | 99000 | 6000 | 0.0 | 0.0 | 54.5 | 39.3 | 122000 | ~67 | fair body weight gain |
